Assay results published in US4812481A, “Synergistic combination of amantadiene and selegiline” (Degussa Aktiengesellschaft, priority 1986, dated 1989).

Key:
akinetic crisis = test: improvement of the akinetic crisis (critical deteriorations of the Morbus Parkinson); format: in vivo, human; conditions: intravenous amantadine, without or with addition of selegiline
Parkinson's disease = test: anti-Parkinsonism action in human (Webster scale, disability score); format: in vivo
From the text: The effect of the anti-Parkinsonism action is established, for example, by Webster, D. D., Med. Treat. (N.Y.) 5, pp. 257-282, 1968. Here, the different symptoms are assigned and weighted after application of the monosubstance amantadine or the combination:
1. Slowed motor response of the hands
2. Rigor (elevation of the muscle tone)
4. Simultaneous swinging of the upper extremities
10. Ability to stand alone.
An anti-Parkinsonism action is present if the sum of the values resulting from the Webster scale (the so-called disability score) is lower than the initial value without medication (<30). The synergistic effect of the combination results from the following: When selegiline is used in addition, the sum of the disability score is lower than that which would have been achieved if only amantadine had been used and/or the duration of the effectiveness of amantadine is extended.

SMILES | onset of improvement of the akinetic crisis (akinetic crisis) | anti-Parkinsonism action (Parkinson's disease; Parkinson's disease, compared to pure amantadine) | improvement of the symptoms of Parkinson (Webster sums) (Parkinson's disease; early stages of Morbus Parkinsonism)
NC12CC3CC(CC(C3)C1)C2 [amantadine, 1-amino-adamantane] | relatively slowly setting in improvement of the akinetic crisis |  | 
C#CCN(C)[C@H](C)Cc1ccccc1 [selegiline, N-(1-phenyl-2-propyl)-N-methyl-2-propinylamine] |  | almost no anti-Parkinsonism action | does not show sufficient effect in regard to improving the symptoms of the Parkinson symptomatics
